Laboratory results: patent publication US20240043435A1, “TYK-2 INHIBITOR” (BEIGENE, LTD., priority 2020, published 2024)

How the values were obtained:
pSTAT5/GM-CSF = pSTAT5/GM-CSF cellular assay (JAK2 selectivity); format: cell-based; conditions: for Selectivity fold (TYK2/JAK2): pSTAT5/GM-CSF IC50 over pSTAT4/IL-12 IC50
[1] = biological target: T1, TYK2-JH2 (aa 575-869, in-house) protein (Homo sapiens, UniProt P29597); assay: TYK2-JH2 biochemical assay (HTRF probe displacement); format: binding; conditions: Biochemical assay; read-out: TYK2-JH2 IC50
T1 construct: TYK2-JH2 (aa 575-869, in-house) protein; made in house
T1 sequence (P29597 575-869): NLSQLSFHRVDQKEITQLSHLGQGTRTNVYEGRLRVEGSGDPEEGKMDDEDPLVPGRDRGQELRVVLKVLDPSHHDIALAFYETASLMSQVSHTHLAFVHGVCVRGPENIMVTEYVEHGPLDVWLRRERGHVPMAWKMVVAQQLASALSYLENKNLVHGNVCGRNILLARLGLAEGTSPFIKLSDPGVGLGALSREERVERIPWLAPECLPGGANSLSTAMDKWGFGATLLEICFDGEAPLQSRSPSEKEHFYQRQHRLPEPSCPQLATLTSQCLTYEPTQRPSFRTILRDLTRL
Method in brief: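 Recombinant TYK2-JH2 (0.2 nM) was pre-incubated 0.5 h at room temperature with compounds (10 doses, 5-fold dilution; 500× DMSO stocks from 500 uM) in 20 mM HEPES pH 7.5, 10 mM MgCl2, 0.005% BSA, 2 mM DTT, 0.015% Brij-35. Probe displacement was read by HTRF (ex337, em620/665 nm); IC50 from four-parameter logistic fit.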

[2] = tested on: JAK2, TYK2/p-STAT4 (Tyr693) activated by IL-12 in NK-92 cell line; assay: IL-12-JAK2, TYK2/p-STAT4 (Tyr693) inhibition IC50 cellular assay; format: cell-based; conditions: for IC50: NK92, Cellular assay, read-out: pSTAT4/IL-12 IC50; for Selectivity fold (TYK2/JAK2): Cellular assay, pSTAT5/GM-CSF IC50 vs pSTAT4/IL-12 IC50
Method in brief: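 NK-92 cells were starved overnight without IL-2 and preincubated 1 h at 37° C with compound (8 doses, 10000–0.61 nM, 4-fold, 0.2% DMSO). They were then stimulated with IL-12 (40 ng/ml final) for 30 min. Lysate p-STAT4 (Tyr693) was read by AlphaLISA SureFire; IC50 from four-parameter logistic fit.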

IC50 (pSTAT5/GM-CSF)	IC50 [1]	IC50 [2]	SMILES	Selectivity fold (TYK2/JAK2) (pSTAT5/GM-CSF)	Selectivity fold (TYK2/JAK2) [2]
8350 nM	0.031 nM	0.526 nM	CC(=O)Nc1cc(Nc2cc(C)cc(S(C)(=O)=O)n2)c(-c2ccn(C3CC3)n2)cn1 [Example M3, N-(5-(1-cyclopropyl-1H-pyrazol-3-yl)-4-((4-methyl-6-(methylsulfonyl)pyridin-2-yl)amino)pyridin-2-yl)acetamide]	15876 fold	
620 nM	0.033 nM	0.559 nM	[2H]C([2H])([2H])Oc1cc(Nc2cc(NC(C)=O)ncc2-c2ccc3c(n2)OCC(C)(C)O3)nc(S(C)(=O)=O)c1 [Example Q24, N-(5-(2,2-dimethyl-2,3-dihydro-[1,4]dioxino[2,3-b]pyridin-6-yl)-4-((4-(methoxy-d3)-6-(methylsulfonyl)pyridin-2-yl)amino)pyridin-2-yl)acetamide]	1109 fold	
700 nM	0.032 nM	1.53 nM	COc1cc(S(C)(=O)=O)nc(Nc2cc(NC(C)=O)ncc2-c2ccc3c(n2)OCC(C)(C)O3)c1OC [Example Q26, N-(4-((3,4-dimethoxy-6-(methylsulfonyl)pyridin-2-yl)amino)-5-(2,2-dimethyl-2,3-dihydro-[1,4]dioxino[2,3-b]pyridin-6-yl)pyridin-2-yl)acetamide]	457 fold	
> 10000 nM	0.025 nM	0.497 nM	CC(=O)Nc1cc(Nc2cc(OC(F)F)cc(S(C)(=O)=O)n2)c(-c2ccn(C)n2)cn1 [Example J58, N-(4-((4-(difluoromethoxy)-6-(methylsulfonyl)pyridin-2-yl)amino)-5-(1-methyl-1H-pyrazol-3-yl)pyridin-2-yl)acetamide]	>20120 fold	
1150 nM	0.031 nM	1.19 nM	CC(=O)Nc1cc(Nc2cc(-c3cscn3)cc(S(C)(=O)=O)n2)c(-c2ccc3c(n2)OCC(C)(C)O3)cn1 [Example Q119, N-(5-(2,2-dimethyl-2,3-dihydro-[1,4]dioxino[2,3-b]pyridin-6-yl)-4-((6-(methylsulfonyl)-4-(thiazol-4-yl)pyridin-2-yl)amino)pyridin-2-yl)acetamide]	965 fold	
1350 nM	0.044 nM	0.862 nM	COc1ccc(S(C)(=O)=O)nc1Nc1cc(NC(C)=O)ncc1-c1ccn(C)n1 [Example J23, N-(4-((3-methoxy-6-(methylsulfonyl)pyridin-2-yl)amino)-5-(1-methyl-1H-pyrazol-3-yl)pyridin-2-yl)acetamide]	1570 fold	
> 10000 nM	0.032 nM	2.55 nM	CCn1ccc(-c2cnc(NC(C)=O)cc2Nc2cc(OCCO)cc(S(C)(=O)=O)n2)n1 [Example M19, N-(5-(1-ethyl-1H-pyrazol-3-yl)-4-((4-(2-hydroxyethoxy)-6-(methylsulfonyl)pyridin-2-yl)amino)pyridin-2-yl)acetamide]	>3921 fold	
> 10000 nM	0.034 nM	0.302 nM	CC(=O)Nc1cc(Nc2cc(-c3cnccc3C#N)cc(S(C)(=O)=O)n2)c(-c2ccc3c(n2)OCC(C)(C)O3)cn1 [Example Q115, N-(4-((4-cyano-6′-(methyslulfonyl)-[3,4′-bipyridin]-2′-yl)amino)-5-(2,2-dimethyl-2,3-dihydro-[1,4]dioxino[2,3-b]pyridin-6-yl)pyridin-2-yl)acetamide]	>33112 fold	
> 10000 nM	0.016 nM	5.9 nM	CC(=O)Nc1cc(Nc2cc(OCCO)cc(S(C)(=O)=O)n2)c(-c2ccn(C)n2)cn1 [Example J15, N-(4-((4-(2-hydroxyethoxy)-6-(methylsulfonyl)pyridin-2-yl)amino)-5-(1-methyl-1H-pyrazol-3-yl)pyridin-2-yl)acetamide]	>1694 fold	
> 10000 nM	0.033 nM	3.47 nM	CCS(=O)(=O)c1cc(OC(C)C)cc(Nc2cc(NC(C)=O)ncc2-c2ccn(C)n2)n1 [Example J53, N-(4-((6-(ethylsulfonyl)-4-isopropoxypyridin-2-yl)amino)-5-(1-methyl-1H-pyrazol-3-yl)pyridin-2-yl)acetamide]	>2881 fold	
> 10000 nM	0.04 nM	0.439 nM	CC(=O)Nc1cc(Nc2nc(S(C)(=O)=O)ccc2C)c(-c2ccn(C)n2)cn1 [Example J27, N-(5-(1-methyl-1H-pyrazol-3-yl)-4-((3-methyl-6-(methylsulfonyl)pyridin-2-yl)amino)pyridin-2-yl)acetamide]	>22779 fold	

Second part, the compound before the results:

SMILES	IC50 (pSTAT5/GM-CSF)	IC50 [1]	IC50 [2]	Selectivity fold (TYK2/JAK2) (pSTAT5/GM-CSF)	Selectivity fold (TYK2/JAK2) [2]
CC(=O)Nc1cc(Nc2cc(OCC(C)C)cc(S(C)(=O)=O)n2)c(-c2ccn(C)n2)cn1 [Example J59, N-(4-((4-isobutoxy-6-(methylsulfonyl)pyridin-2-yl)amino)-5-(1-methyl-1H-pyrazol-3-yl)pyridin-2-yl)acetamide]	> 10000 nM	0.029 nM	1.31 nM	>7633 fold	
CC(=O)Nc1cc(Nc2cc(OC(C)C)cc(S(C)(=O)=O)n2)c(-c2ccn(C3CCC3)n2)cn1 [Example A19, N-(5-(1-cyclobutyl-1H-pyrazol-3-yl)-4-((4-isopropoxy-6-(methylsulfonyl)pyridin-2-yl)amino)pyridin-2-yl)acetamide]	> 10000 nM	0.034 nM	1.53 nM		>6535 fold
CC(=O)Nc1cc(Nc2cc(OCCO)cc(S(C)(=O)=O)n2)c(-c2ccc(C(C)(C)O)cn2)cn1 [Example H8, N-(4′-((4-(2-hydroxyethoxy)-6-(methylsulfonyl)pyridin-2-yl)amino)-5-(2-hydroxypropan-2-yl)-[2,3′-bipyridin]-6′-yl)acetamide]	> 10000 nM	0.041 nM	21.7 nM		>461 fold
CC(=O)Nc1cc(Nc2cc(C)cc(S(C)(=O)=O)n2)c(-c2ccc(F)cn2)cn1 [Example F17, N-(5-fluoro-4′-((4-methyl-6-(methylsulfonyl)pyridin-2-yl)amino)-[2,3′-bipyridin]-6′-yl)acetamide]	> 10000 nM	0.054 nM	1.25 nM		>8000 fold
COCCOc1ccc(-c2cnc(NC(C)=O)cc2Nc2cc(C)cc(S(C)(=O)=O)n2)nc1 [Example D4, N-(5-(2-methoxyethoxy)-4′-((4-methyl-6-(methylsulfonyl)pyridin-2-yl)amino)-[2,3′-bipyridin]-6′-yl)acetamide]	> 10000 nM	0.044 nM	0.262 nM		>38167 fold
CC(=O)Nc1cc(Nc2cc(OC(C)C)cc(S(C)(=O)=O)n2)c(-c2cccc(C#N)n2)cn1 [Example A16, N-(6-cyano-4′-((4-isopropoxy-6-(methylsulfonyl)pyridin-2-yl)amino)-[2,3′-bipyridin]-6′-yl)acetamide]	> 10000 nM	0.021 nM	0.667 nM		>14992 fold
CC(=O)Nc1cc(Nc2cc(OCC3CC3)cc(S(C)(=O)=O)c2)c(-c2ccc(N3C[C@@H](C)O[C@@H](C)C3)cn2)cn1 [Example C6, N-(4′-((3-(cyclopropylmethoxy)-5-(methylsulfonyl)phenyl)amino)-5-((cis)-2,6-dimethylmorpholino)-[2,3′-bipyridin]-6′-yl)acetamide]	> 10000 nM	0.054 nM	26 nM		>381 fold
